The source of these data is patent US20230023847A1, “COMPOSITION FOR PREVENTING HAIR LOSS AND PROMOTING HAIR REGROWTH” (LG HOUSEHOLD & HEALTH CARE LTD., priority 2020, published 2023).

One data set concerns androgen receptor. Description: Androgenic activity: transcriptional activation (MMTV-Luc luciferase reporter) assay with 1 nM DHT. The note with it: 24 hours. The data set is classed as cell-based, human. Here is the method: (§1) The stable cell line was maintained by subculturing using RPMI1640 and 10% fetal bovine serum (GIBCO BRL, Gaithersburg, Md., USA). For transcriptional activation assay, the cells were seeded in a 96-well plate, with 25,000 cells per well, while replacing the medium with phenol red-free RPMI1640 containing 5% charcoal-stripped fetal bovine serum. […] The cell culture was treated and incubated with CCK-8 at 1:10 for 2 hours. 2 hour later, the absorbance of each well was measured at 450 nm. All the experiments were 3 times and the absorbance was averaged. […] The experimental result is shown in Table 1, Table 2 and FIGS. 1-4.

Data set [1] has as its system 22Rv1 human prostate cancer cells. Put plainly: CCK-8 assay conducted in parallel to investigate cytotoxicity (cell viability). Here is the method:
as §1

A further data set has as its system Dkk-1. Put plainly: Inhibition of expression of hair follicle catagen factor (Dkk-1 ELISA). The data set is classed as cell-based. The conditions noted are these: 24 hours, human dermal papilla cells (hDPCs). Here is the method:
The inhibition of the expression of the hair follicle catagen marker Dkk-1 was investigated using human dermal papilla cells (hDPCs). The human dermal papilla cells were purchased from PromoCell. The hDPCs were subcultured in an hDPC culture medium (follicle dermal papilla cell growth medium; PromoCell, Heidelberg, Germany) containing a medium additive (Supplement Mix; PromoCell, Heidelberg, Germany), 100 units/mL penicillin and […] streptomycin under the condition of 37° C. and 5% CO2. One million subcultured hDPCs were seeded onto a 100-mm cell culture dish and then cultured in an incubator at 37° C. 48 hours later, after treating with each of gypsogenin 3-O-β-D-glucuronopyranoside, deapioplatycodin D, congmunoside X and chikusetsusaponin IVa at 2 ppm or 20 ppm for 24 hours, the cell culture was subjected to Dkk-1 ELISA assay (R&D Systems, USA). The protein amount of each test group was identified by BCA assay and corrected with the result of Dkk-1 ELISA.

Consider `C[C@@H]1O[C@@H](O[C@H]2[C@H](OC(=O)[C@]34CCC(C)(C)C[C@H]3C3=CC[C@@H]5[C@@]6(C)C[C@H](O)[C@H](O[C@@H]7O[C@H](CO)[C@@H](O)[C@H](O)[C@H]7O)C(CO)(CO)[C@@H]6CC[C@@]5(C)[C@]3(C)C[C@H]4O)OC[C@H](O)[C@@H]2O)[C@H](O)[C@H](O)[C@H]1O[C@@H]1OC[C@@H](O)[C@H](O)[C@H]1O` [Deapioplatycodin D, deapioplatycodin D], for which the results for the “Androgenic activity (% of 1 nM DHT)” value in the data set with androgen receptor (0.2 ppm together with 1 nM DHT), in the data set on androgen receptor (2 ppm together with 1 nM DHT) and in the data set with androgen receptor (20 ppm together with 1 nM DHT) were 89.1 % of 1 nM DHT, 72.2 % of 1 nM DHT and 34.9 % of 1 nM DHT, respectively. Also, the “Cell viability (% of 1 nM DHT)” value in data set [1] (0.2 ppm together with 1 nM DHT, CCK-8) is given as 102.2 % of 1 nM DHT; in data set [1] (2 ppm together with 1 nM DHT, CCK-8), 99.4 % of 1 nM DHT; in data set [1] (20 ppm together with 1 nM DHT, CCK-8) it was 81.6 % of 1 nM DHT. Besides, the “Relative expression level of Dkk-1 (% of untreated group)” value in the data set with Dkk-1 (2 ppm) is recorded as 86.4 % of untreated group; in the data set with Dkk-1 (20 ppm), 76.7 % of untreated group.
As to `CC1(C)CC[C@]2(C(=O)O[C@@H]3O[C@H](CO)[C@@H](O)[C@H](O)[C@H]3O)CC[C@]3(C)C(=CC[C@@H]4[C@@]5(C)CC[C@H](O[C@@H]6O[C@H](CO)[C@@H](O)[C@H](O[C@@H]7O[C@H](CO)[C@@H](O)[C@H](O[C@@H]8O[C@H](CO)[C@@H](O)[C@H](O)[C@H]8O)[C@H]7O)[C@H]6O[C@@H]6O[C@H](CO)[C@@H](O)[C@H](O)[C@H]6O)C(C)(C)[C@@H]5CC[C@]43C)[C@@H]2C1` [Congmunoside X, congmunoside X], the “Androgenic activity (% of 1 nM DHT)” value in the data set on androgen receptor (2 ppm together with 1 nM DHT) is recorded as 104.4 % of 1 nM DHT; in the data set on androgen receptor (20 ppm together with 1 nM DHT) it was 85.9 % of 1 nM DHT; in the data set with androgen receptor (200 ppm together with 1 nM DHT), 14.9 % of 1 nM DHT. Also, the “Relative expression level of Dkk-1 (% of untreated group)” value in the data set with Dkk-1 (2 ppm) is reported as 90.8 % of untreated group; in the data set on Dkk-1 (20 ppm), 81.2 % of untreated group.
On to `C[C@]12CCC(=O)C[C@@H]1CC[C@@H]1[C@@H]2CC[C@]2(C)[C@@H](O)CC[C@@H]12` [DHT, dihydrotestosterone, reference compound], for which the “Androgenic activity (% of 1 nM DHT)” value with androgen receptor (DHT 1 nM alone, 22Rv1 MMTV-Luc stable cell line) is listed as 100.0 % of 1 nM DHT. The “Cell viability (% of 1 nM DHT)” value in data set [1] (DHT 1 nM alone, CCK-8, 22Rv1 stable cell line) is listed as 100.0 % of 1 nM DHT.
Turning to `CC1(C)CC[C@]2(C(=O)O[C@@H]3O[C@H](CO)[C@@H](O)[C@H](O)[C@H]3O)CC[C@]3(C)C(=CC[C@@H]4[C@@]5(C)CC[C@H](O[C@@H]6O[C@H](C(=O)O)[C@@H](O)[C@H](O)[C@H]6O)C(C)(C)[C@@H]5CC[C@]43C)[C@@H]2C1` [Chikusetsusaponin IVa, chikusetsusaponin IVa], the “Androgenic activity (% of 1 nM DHT)” value in the data set on androgen receptor (0.2 ppm together with 1 nM DHT) was 84.7 % of 1 nM DHT; in the data set on androgen receptor (2 ppm together with 1 nM DHT) it was 79 % of 1 nM DHT; in the data set with androgen receptor (20 ppm together with 1 nM DHT) it was 77.5 % of 1 nM DHT. The results for the “Relative expression level of Dkk-1 (% of untreated group)” value in the data set with Dkk-1 (2 ppm) and with Dkk-1 (20 ppm) were 85.2 % of untreated group and 70.9 % of untreated group, respectively.
The corresponding values for `CC1(C)CC[C@]2(C(=O)O)CC[C@]3(C)C(=CC[C@@H]4[C@@]5(C)CC[C@H](O[C@@H]6O[C@H](C(=O)O)[C@@H](O)[C@H](O)[C@H]6O)[C@@](C)(C=O)[C@@H]5CC[C@]43C)[C@@H]2C1` [Gypsogenin 3-O-β-D-glucuronopyranoside, gypsogenin 3-O-β-D-glucuronopyranoside] are 98.1 % of 1 nM DHT, 79.1 % of 1 nM DHT, −9.8 % of 1 nM DHT, 96.5 % of untreated group and 77.5 % of untreated group.
